{"source": "patent US20100239646A1", "about": "“Sublingual methotrexate and methotrexate patches” (priority 2009, published 2010)", "key": {"aldehyde oxidase": {"test_system": "aldehyde oxidase", "assay": "Aldehyde oxidase mediated oxidation of methotrexate", "description": "(§1) In order to unravel the mechanism of methotrexate non-responsiveness M. G. Nair investigated the metabolism of methotrexate and its potential deactivation pathways. […] 3; 29-34 (1996)].\nThe aldehyde oxidase mediated oxidation of methotrexate vs. certain metabolically inert antifolates was investigated by M. Gopal Nair. [Med. Chem. Research. 9:176-185, 1999]."}, "[1]": {"details": "cited from earlier work"}, "[2]": {"test_system": "patients with rheumatoid arthritis", "assay": "Conventional therapy of rheumatoid arthritis with methotrexate (Rheumatrex)", "type": "in vivo, human", "description": "as §1"}, "[3]": {"details": "cited from earlier work", "remark": "listed apart in the source"}, "[4]": {"details": "oral dosage form; cited from earlier work"}, "[5]": {"assay": "Absorption of oral methotrexate in a group of arthritic patients (Example-1)", "type": "in vivo, human", "details": "oral dosage form", "procedure": "If 10 mg of the drug is given by the oral route only 2.0 mg is absorbed. If the optimal therapeutic dosage is tailored based on this low absorption, then the therapeutically effective dose without manifestation of significant toxic effects would be an effective accumulation of 2.0 mg of the drug in the plasma. It is reasonable to assume for antifolates that an increase of 50% of drug level in plasma relative to the accepted safe level would lead to disastrous toxic consequences including severe bone marrow depression. Therefore an increase of bioavailability from 20 to 30 percent in this case would effectively increase drug concentration by 50% in the plasma. The 10 percent increase in Bioavailability may well be envisioned by slight pH changes in the gut of patients who may be taking antacids, or medicine to modulate acid secretions, taking other medications or unknown factors. The present invention addresses this very crucial safety issues and provides a means to stabilize drug concentration in plasma to predictable levels by replacing oral dosage form of methotrexate with the sublingual dosage form, the absorption of which is independent of the biochemical pharmacology of human gut."}, "[6]": {"details": "women; sublingual versus oral solid dosage unit; cited from earlier work"}}}
{"smiles": "CN(Cc1nc2c(N)nc(N)nc2[nH]c1=O)c1ccc(C(=O)N[C@@H](CCC(=O)O)C(=O)O)cc1", "note": "[7-hydroxymethotrexate]", "values": [{"measurement": "antifolate activity of the oxidation product", "setting": "aldehyde oxidase", "value": "inactive"}]}
{"smiles": "CN(Cc1cnc2nc(N)nc(N)c2n1)c1ccc(C(=O)N[C@@H](CCC(=O)O)C(=O)O)cc1", "note": "[methotrexate]", "values": [{"measurement": "toxic effects of the incorrect dose", "setting": "[1]; 60 mg weekly instead of 15 mg weekly, oral tablets, rheumatoid arthritis patient", "value": "odynophagia, dysphagia and oesophagitis"}, {"measurement": "severe unwanted effects", "setting": "[1]; weekly dose taken in error daily or on several days each week", "value": "neutropenia, hepatotoxicity and bone marrow suppression"}, {"measurement": "percentage of patients who were methotrexate non-responders", "setting": "[2]", "value": 40, "unit": "%"}, {"measurement": "drug related toxicity", "setting": "[2]; some patients", "value": "elevation of liver enzymes"}, {"measurement": "solubility", "setting": "[3]", "value": "pH dependent"}, {"measurement": "theoretical bioavailability", "setting": "[4]", "value": "20-80%"}, {"measurement": "absorption", "setting": "[5]", "value": 20, "unit": "%"}]}
{"smiles": "C[C@]12CC[C@@H]3c4ccc(O)cc4CC[C@H]3[C@@H]1CC[C@@H]2O", "note": "[estradiol]", "values": [{"measurement": "share of the oral dose needed by the sublingual route to achieve the same bioavailability", "setting": "[6]", "value": "20-25%"}]}
{"smiles": "Nc1nc(=O)c2c([nH]1)NCC(CNc1ccc(C(=O)N[C@@H](CCC(=O)[O-])C(=O)[O-])cc1)N2C=O.[Ca+2]", "note": "(stereo partly shown) [Calcium folinate]", "values": [{"measurement": "time to improvement of odynophagia", "setting": "[1]; 15 mg orally four times a day after methotrexate overdose", "value": "≤ 24", "unit": "h"}]}
